This assay has as its system M. tuberculosis H37Rv growth inhibition. Description: M. tuberculosis H37Rv growth inhibitors, H37Rv strain (AID 1626). As to conditions: for IC90: measured here: IC90 against H37Rv; for CC50: measured here: Vero cell cytotoxicity.

From PubChem BioAssay AID1626 (SRMLSC, 2009) come the findings set out here.

In the case of `C/C(=N\N=C(/N)SC1CC(=O)N(c2ccc(Br)cc2)C1=O)c1cccs1` (centres undefined), the IC50 was 9.24 µM, the IC90 is 16.8 µM and the CC50 is more than 40 µM.

Regarding `O=c1c([N+](=O)[O-])cc(C(F)(F)F)cn1Cc1cccc(Cl)c1`, the IC50 was 8.56 µM and the IC90 is 22.2 µM.

As for `O=C(Nc1cccnc1)c1c(O)c2cccc3c2n(c1=O)CC3`, the IC50 was 1.87 µM and the IC90 came out at 2.08 µM.

For `CN1c2ccc([N+](=O)[O-])cc2CC2(C(=O)NC(=O)N(c3ccc(Br)cc3)C2=O)C1c1ccccc1` (centres undefined), the IC50 is 0.964 µM, the IC90 is more than 100 µM and the CC50 was more than 40 µM.

`O=C(/C=C/Nc1ccc(Oc2ccccc2Cl)cc1)c1ccco1` showed an IC90 of more than 100 µM and a CC50 of more than 40 µM.

Take `O=C(OCC(=O)N1CCc2ccccc21)c1ccc(Cl)nc1`: the IC50 was 14.2 µM and the IC90 is more than 100 µM.

Regarding `COc1ccc(Cl)cc1NC(=O)C(C)N1CCN(C/C=C/c2ccccc2)CC1` (centres undefined), the IC50 is 12.3 µM and the IC90 turned out to be 13.3 µM.

The compound `CCOC(=O)c1ccc(NC(=O)Cn2cccc2)cc1` came in with an IC90 of more than 100 µM.

Take `CC(=O)Oc1ccc2oc3c(c2c1)C(=O)CCC3`: the IC50 was 12 µM and the IC90 is more than 100 µM.

As to `Cc1c2c(nc3ccccc13)CCC(C)C2` (centres undefined), the IC50 is 16.6 µM and the IC90 was determined as 40.6 µM.

Regarding `Cc1ccc(NC(=O)NCC2CCN(Cc3cccc(Cl)c3)CC2)cc1Cl`, the IC50 was 11.6 µM, the IC90 was determined as 31.2 µM and the CC50 amounted to 29.4 µM.

Consider `COc1ccc(-c2nnc(NC(=O)c3cc(Cl)ccc3Cl)o2)cc1`, for which the IC50 was 1.2 µM, the IC90 is more than 100 µM and the CC50 stood at 38.8 µM.

In the case of `Cn1cnc([N+](=O)[O-])c1S(=O)(=O)c1ccc(Cl)cc1`, the IC50 was 8.35 µM, the IC90 came to 10.7 µM and the CC50 amounted to 23.4 µM.

On to `CCOC(=O)c1cc(-c2csc(COc3ccccc3)n2)on1`, for which the IC50 is 1.84 µM and the IC90 came to 35.2 µM.

Consider `OC(CNCCc1ccc(C(F)(F)F)cc1)COc1cccc2ccccc12` (centres undefined), for which the IC50 is 5.71 µM, the IC90 worked out at 6.42 µM and the CC50 amounted to 13.7 µM.

Consider `COc1ccccc1OC(=O)CCN1c2ccccc2Sc2ccccc21`, for which the IC50 is 11.8 µM and the IC90 turned out to be 17.5 µM.

In the case of `O=C(Nc1nc(-c2ccc(-c3ccccc3)cc2)cs1)c1cnccn1`, the IC90 was more than 100 µM and the 50% cytotoxic concentration (CC50) is more than 40 µM.

Regarding `CCOc1ccc(NC(=O)CCn2cccc2)cc1`, the IC90 was more than 100 µM.

In the case of `Cc1cc(C)n(-c2nc(SCCN(C)C)c3c4c(sc3n2)CCCC4)n1`, the IC50 was 4.2 µM, the IC90 amounted to 6.19 µM and the CC50 worked out at 11.6 µM.

On to `COc1cc(OC)c2c(-c3ccccc3)cc(=O)oc2c1C(CCN1CCCCC1)c1ccc(N(C)C)cc1` (centres undefined), for which the IC50 was 8.78 µM, the IC90 was 12.1 µM and the CC50 worked out at 20.4 µM.

Consider `Cc1ccc(Nc2cc(C)nc(NCc3ccccc3)n2)cc1`, for which the IC50 was 6.69 µM, the IC90 turned out to be 9.45 µM and the CC50 is more than 40 µM.

Take `C(=C\c1nc(N2CCCCCC2)c2ccccc2n1)/c1ccccc1`: the IC50 is 8.43 µM, the IC90 is 11.1 µM and the CC50 was 37.5 µM.

Take `CC1CCN(c2nc(CN3CCCCC3)nc3scc(-c4ccccc4)c23)CC1`: the IC50 was 9.11 µM, the IC90 came to 11.9 µM and the CC50 was determined as 34.9 µM.

For the compound `CCOC(=O)c1cnc2ccc(OCC)cc2c1NCc1ccccc1`, the IC50 is 15.7 µM, the IC90 was 22.2 µM and the CC50 is more than 40 µM.

With `CCCNC(=O)c1nnsc1S(=O)c1ccc(Cl)cc1` (centres undefined), the IC50 is 8.74 µM, the IC90 was 10.5 µM and the CC50 was determined as 8.53 µM.

`Cc1ccc(NC(=O)c2ccc([N+](=O)[O-])o2)c(C)c1`: the IC50 is 6.59 µM, the IC90 amounted to 11.2 µM and the CC50 was determined as 13.4 µM.
